Assay results reported in patent US9763941B2, “Method of treating melanoma by administration of pharmaceutical formulations of (S)-methyl (1-((4-(3-(5-chloro-2-fluoro-3-(methylsulfonamido)phenyl)-1-isopropyl-1H-pyrazol-4-yl)pyrimidin-2-yl)amino)propan-2-yl)carbamate” (Array BioPharma, Inc., priority 2011, dated 2017).
“Also recorded” adds a separate entry of the source.

Experiment: aqueous solubility characteristics / BCS classification
Assay type: physicochemical
From the text: Upon emptying from the stomach, COMPOUND A has the tendency to quickly precipitate out of solution due to an abrupt solubility drop in intestinal pH. […] The present invention relates to orally bioavailable pharmaceutical solid dispersion formulations of COMPOUND A.
Therapeutic compounds with such solubility characteristics typically present pharmaceutical formulation scientists with a challenge while attempting to prepare oral formulations capable of improving oral bioavailability of the therapeutic compound. Such challenges in preparing solid oral dosage forms of COMPOUND A are overcome, according to the present invention, by formulating the compound as a solid dispersion.

## COC(=O)N[C@@H](C)CNc1nccc(-c2cn(C(C)C)nc2-c2cc(Cl)cc(NS(C)(=O)=O)c2F)n1 [COMPOUND A, (S)-methyl (1-((4-(3-(5-chloro-2-fluoro-3-(methylsulfonamido)phenyl)-1-isopropyl-1H-pyrazol-4-yl)pyrimidin-2-yl)amino)propan-2-yl)carbamate]
  BCS class: BCS class II
Low pH
  solubility at low pH: higher solubility; also recorded: highly soluble
Weakly acidic and neutral pH
  aqueous solubility at weakly acidic and neutral pH: limited solubility; also recorded: poor aqueous solubility
